This is an account of results in patent publication US10656142B2, “Measuring antiplatelet activity” (Melaleuca, Inc., priority 2014, dated 2020).

The subject of the test is platelets. Nature of the test: Rate of platelet superoxide production during oscillatory shear stress (EPR with CAT1H spin probe) in platelet rich plasma, before and after supplementation. In kind it is in vivo, Human. As to conditions: 24 healthy volunteers; measured before and 10 hours after supplementation; Provex CV single or double daily dose, aspirin 325 mg; randomized, single-blind, cross-over study. The protocol: Human venous blood was collected via a low-pressure protocol. A manual blood pressure cuff was applied to the arm with a maximum pressure of 40 mmHg. The first sodium citrate vacutainer (75 USP Units, 4 mL) was discarded, and three more were then filled. Blood was centrifuged at 100 g for 19 minutes with no active braking mechanism. Centrifuged blood was then allowed to sit for 20 to 30 minutes. […] An initial 30 μL sample was taken via glass capillary tube for a baseline reading. The SSC was started, and an initial, 5 point kinetic sample was measured. […]
Amplitude readings were recalculated into μM, and a graph depicting μM/min was prepared. […]
24 healthy volunteers were supplemented with the test composition (Provex CV®) at two different dosages (single or double daily dose) or aspirin (325 mg) in a randomized, single-blind, cross-over study. The rate of superoxide production during shear stress was measured before and 10 hours after supplementation.

Take `CC(=O)Oc1ccccc1C(=O)O` [aspirin]: the “inhibition of platelet activation (rate of superoxide production during shear stress)” value is reported as “no effect observed”.
